In ChEMBL document CHEMBL3856210, “Discovery of in vitro antitubercular agents through in silico ligand-based approaches” (Eur J Med Chem, 2016) one finds MIC and Drug metabolism data, which are given here for 39 compounds.

The term MIC denotes the smallest concentration in the dilution series that meets the test's criterion for growth inhibition. Low readings indicate inhibition by little substance, high ones a need for much substance.

≈ marks a conversion by molar mass, not a printed value.

The nature of one data set: Antitubercular activity against Mycobacterium tuberculosis H37Ra ATCC 25177 after 21 days by agar dilution method. The format is functional. The following applies: ATCC 25177, 504 h. Background: Agar dilution tests growth on a series of plates holding different concentrations.
In turn, `Cc1nn(-c2ccc(Cl)cc2)c(O)c1C(=O)c1ccccc1` came in with an MIC of 25 µg/mL (≈ 79.9 µM). Take `Cc1ccc(C(=O)Oc2c(C(=O)c3ccc(C)cc3)c(C)nn2-c2ccccc2)cc1`: the minimal inhibitory concentration (MIC) was > 100 µg/mL. On the same count and under the same terms, then `Cc1c(C(=O)c2ccc(Cl)cc2)c(=O)n(-c2ccccc2)n1Cc1ccc([N+](=O)[O-])cc1`, with > 32 µg/mL. `CC1=NN(c2ccc(Cl)cc2)C(=O)/C1=C(/c1ccc(Cl)cc1)N1CCC(C)CC1`: the minimum inhibitory concentration (MIC) stood at 64 µg/mL (≈ 149 µM). Still for that read-out and setting: then `CCCc1cc(=O)n2nc(C)c(-c3ccc(Cl)cc3)c2[nH]1`, with 8 µg/mL (≈ 26.5 µM). `Cc1c(C(=O)c2ccc(Cl)cc2)c(=O)n(-c2ccc(Cl)cc2)n1Cc1ccccc1`: the lowest concentration to inhibit growth (MIC) was 16 µg/mL (≈ 36.6 µM). The same measure, in the same setting: the same measure for `CC1=NN(c2ccccc2)C(=O)/C1=C(/c1ccc(Cl)cc1)N1CCSCC1`: 8 µg/mL (≈ 20.1 µM); for `CCCc1cc(=O)n2nc(C)c(-c3ccc(OC)c(OC)c3)c2[nH]1`: 64 µg/mL (≈ 195 µM).

In turn, `Cc1nn2c(=O)cc(Cc3ccsc3)[nH]c2c1-c1ccc(Cl)cc1` yielded a minimal inhibitory concentration (MIC) of 32 µg/mL (≈ 89.9 µM).

Consider `CC1=NN(c2ccc(Cl)cc2)C(=O)/C1=C(/c1ccc(Cl)cc1)N(C)C`, for which the lowest concentration to inhibit growth (MIC) was 16 µg/mL (≈ 42.7 µM). Against the preceding compound, the MIC is about 2-fold lower. Same read-out and setting: the same measure for `O=C(O[C@H](Cn1ccnc1)c1ccc(Cl)cc1Cl)N1CCN(c2ccc(Cl)c(Cl)c2)CC1`: 8 µg/mL (≈ 15.6 µM). Take `CC1=NN(c2ccc(Cl)cc2)C(=O)/C1=C(/c1ccc(Cl)cc1)N1CCCCC1`: the MIC was > 64 µg/mL. `C=CCn1cnc2sc(C)c(-c3ccc(Cl)cc3)c2c1=O` showed an MIC of 32 µg/mL (≈ 101 µM). In turn, `Cc1nn(-c2ccccc2)c(O)c1C(=O)/C=C/c1ccccc1` had a minimum inhibitory concentration (MIC) of 50 µg/mL (≈ 164 µM). This MIC is about 1.6-fold higher than that of the compound before. Still for that read-out and setting: the same measure for `CSc1ccc(-n2c(-c3ccc(C)cc3)cc(CN3CCSCC3)c2C)cc1`: 1 µg/mL (≈ 2.45 µM); for `CCOC(=O)c1cnc2c(Cl)c(Cl)ccc2c1NCc1cccnc1`: 32 µg/mL (≈ 85.1 µM). The compound `Cc1c(C(=O)c2ccc(Cl)cc2)c(=O)n(-c2ccc(Cl)cc2)n1Cc1ccc([N+](=O)[O-])cc1` showed a minimum inhibitory concentration (MIC) of 32 µg/mL (≈ 66.3 µM).

`COc1ccc(-n2c(SC)nnc2-c2ccc(Cl)cc2)c(OC)c1` showed an MIC of 32 µg/mL (≈ 88.4 µM). As for `Cc1nn(-c2ccccc2)c(O)c1C(=O)c1ccc2ccccc2c1`, the minimum inhibitory concentration (MIC) was found to be 25 µg/mL (≈ 76.1 µM).

Regarding `CCc1ccc(-c2cc(CN3CCSCC3)c(C)n2-c2ccc(OC)cc2)cc1`, the MIC was 0.5 µg/mL (≈ 1.23 µM). `CCCOc1ccc2c(c1)sc1ncc(NC(=O)c3ccc(Cl)cc3)c(=O)n12` showed an MIC of 32 µg/mL (≈ 77.3 µM). As for `CO/N=C(\c1ccc(Cl)cc1)c1c(C)nn(-c2ccccc2)c1O`, the minimal inhibitory concentration (MIC) turned out to be 25 µg/mL (≈ 73.1 µM). `Cc1ccc(C2NC(=O)NC(O)(C(F)(F)F)C2C(=O)c2ccc(Cl)cc2)cc1` (centres undefined) showed a minimum inhibitory concentration (MIC) of 32 µg/mL (≈ 77.5 µM). Turning to `Cc1cc(/C=N\OCc2ccc(Cl)cc2)c(C)n1-c1ccc(F)cc1`, the MIC was determined as 50 µg/mL (≈ 140 µM). With `Cc1cc(/C=N\OCc2ccccc2)c(C)n1-c1ccccc1`, the MIC is > 100 µg/mL. Still for that read-out and setting: then `COCc1cc(=O)n2nc(C)c(-c3ccccc3OC)c2[nH]1`, with 32 µg/mL (≈ 107 µM); and `Cc1nn(-c2ccccc2)c(O)c1C(=O)c1ccc([N+](=O)[O-])cc1`, with > 100 µg/mL. In the case of `Cc1ccccc1C(=O)c1c(C)nn(-c2ccccc2)c1O`, the MIC is 50 µg/mL (≈ 171 µM). For the compound `O=C(C1=C(O)C(=O)N(c2ccccc2)C1c1ccccc1F)c1ccc(Cl)cc1` (centres undefined), the MIC came to 32 µg/mL (≈ 78.5 µM). In turn, `CC1=NN(c2ccc(Cl)cc2)C(=O)/C1=C(/c1ccc(Cl)cc1)N1CCSCC1` displayed a minimum inhibitory concentration (MIC) of 8 µg/mL (≈ 18.5 µM). `CCc1c(CN2CCSCC2)cc(-c2ccc(F)cc2)n1-c1ccccc1F` displayed an MIC of 2 µg/mL (≈ 5.02 µM). Regarding `O=C(c1ccc(Cl)cc1)c1c(-c2ccccc2)[nH]n(-c2ccc(Cl)cc2)c1=O`, the minimum inhibitory concentration (MIC) came to 16 µg/mL (≈ 39.1 µM). Compound `O=C(COc1ccccc1)OC(Cn1ccnc1)c1ccc(Cl)cc1` (racemic) returned a minimal inhibitory concentration (MIC) of 64 µg/mL (≈ 179 µM).

Consider `O=C(O[C@H](Cn1ccnc1)c1ccc(Cl)cc1)N1CCN(c2ccc(Cl)cc2)CC1`, for which inhibition of growth (MIC) required 16 µg/mL (≈ 35.9 µM). `Cc1nn(C(C)CNC(=O)C2(c3ccc(Cl)cc3)CCOCC2)c(C)c1C` (centres undefined): the lowest concentration to inhibit growth (MIC) was 64 µg/mL (≈ 164 µM). `CC1=NN(c2ccccc2)C(=O)/C1=C(/c1ccc(Cl)cc1)N1CCN(C)CC1` displayed a minimum inhibitory concentration (MIC) of 8 µg/mL (≈ 20.3 µM). As to `CCc1c(CN2CCSCC2)cc(-c2ccccc2)n1-c1ccccc1`, it took 2 µg/mL (≈ 5.52 µM) to inhibit growth (MIC). `O=C1C/C(=N\c2ccc(Cl)cc2)SC1Cc1ccc(Cl)cc1` (centres undefined) yielded an MIC of 32 µg/mL (≈ 91.4 µM). This MIC lies about 16-fold higher than the previous one.

Another data set is described as follows: Drug level in human liver microsomes assessed as CYP450-mediated compound formation treated with (+/-)-1-(4-Chlorophenyl)-2-(1H-imidazol-1-yl)ethyl-4-(3,4-dichlorophenyl)piperazine-1-carboxylate at 50 uM after 60 mins in presence of NADPH by LC-MS analysis. Type of data set: ADME.
Settings: not given
On the technique in general: Liver microsomes are vesicles of endoplasmic reticulum, rich in cytochrome P450 enzymes.
`O=C(OC(c1ccc(Cl)cc1)C(O)n1ccnc1)N1CCN(c2ccc(Cl)c(Cl)c2)CC1` (centres undefined): the Drug metabolism result is recorded as “Metabolite_Detected”.
